Source: patent publication US10858305B2, “Perillyl alcohol-3-bromopyruvate conjugate and methods of treating cancer” (NeOnc Technologies, Inc., priority 2016, dated 2020)
“Also recorded” adds a separate entry of the source.

What was measured:
[1] = test system: MDA-MB-231, T47D, T98G, U251, HCT116 and A2780 cancer cells; test: MTT assay, cell viability after 48 hours in six cancer cell lines; type: cell-based, human
From the text: The tumor cell-killing potency of NEO218 was characterized by in vitro, short-term MTT assays (measuring viability of cells via determination of metabolic activity), LDH assays (measuring the release of lactate dehydrogenase as an indicator of leaky cell membranes, which are indicative of dying cells), and colony-formation assays (CFA, which determine long-term survival of drug-treated cells and their ability to spawn a colony of descendants). Several established cell lines derived from cancers of the breast were used as target cells (including MDA-MB-231; MDA-MB-468; T47D; MCF7; MCF7/Dox; BTB12), brain (T98G; U251), ovary (A2780), and colon (HCT116). In all cases, cells in culture were exposed to increasing concentrations of agents for 24 or 48 hours.
Cell lines from different cancer types were treated with increasing concentrations of 3-bromopyruvate (3-BP) or NEO218. After 48 hours, cell viability was measured by MTT assay. MDA-MB-231 and T47D are breast cancer cells; T98G and U251 are brain cancer (glioblastoma) cells; HCT116 are colon cancer cells; A2780 are ovarian cancer cells.

tumor cell lines = test: cells; type: cell-based, human
Procedure: Different tumor cell lines were treated with 3-BP mixed with POH, and the effects were compared to the effects of NEO218, as well as to 3-BP alone. The cells were treated for 24 hours, and then the MTT assay was conducted to measure cell viability.

[2] = test system: HCT116 colon cancer cells; test: Cellular ATP content assay; type: cell-based, human; details: HCT116; 3 hours (FIG. 9) or 3 and 6 hours at 40 μM (FIG. 22)
Procedure: HCT116 cells were treated with 40 μM 3-BP or NEO218. As a point of reference, cells were also exposed to 100 nM rotenone in glucose-free medium. ATP levels were determined after 3 and 6 hours. ATP levels in untreated cells were set at 100% (corresponding to 26.6 nmol per one million cells).
HCT116 colon cancer cells were treated cells with: NEO218, 3-BP; rotenone (a mitochondrial poison that blocks the respiratory chain); medium without glucose (“no gluc”; in order to shut down glycolysis); and, rotenone in combination with absent glucose (to cease all intracellular ATP production). After 3 hours of treatment, a commercially available ATP detection assay kit was employed to determine the relative levels of ATP present.
ATP content of cells was measured with the ATP Colorimetric/Fluorometric Assay kit (Biovision Inc., Milpitas, Calif.), which utilizes the phosphorylation of glycerol to generate a product that is quantified by colorimetry at 570 nm. Approximately 1×10^6 cells were cultured in 10-cm tissue culture plates, exposed to drug treatment for various time periods, and then processed as per manufacturer's instructions. All ATP levels were normalized to untreated controls and presented as percentage of controls.

[3] = test system: MDA-MB-231 triple-negative breast cancer cells; test: Subcutaneous MDA-MB-231 xenograft in nude mice; type: in vivo; details: 5 mg/kg on days 1, 5, 9
Procedure: The anticancer activity of NEO218 in vivo was investigated next. MDA-MB-231 triple-negative breast cancer cells were subcutaneously implanted into 12 nude mice. After two weeks, the animals were separated into 2 groups for treatment with either vehicle (no drug) or NEO218 (5 mg/kg). Then, NEO218 (or vehicle) was administered on days 1, 5, and 9 (3 doses total, 4 days apart). Tumor growth was measured with calipers every 3 days from day 1 (=start of treatment) until day 13 (end of experiment).
The panels show tumor growth over time for each individual animal.

[4] = test system: HCT116 3-BP survivors (MCT-1-negative) and parental cells; test: Selection of 3-BP survivors from HCT116 cells and MTT chemosensitivity; type: cell-based, human
Procedure: (A) Immunostaining of HCT116 cells in the absence of any drug treatment (parental cells; left panel) and after 2-week recovery from highly toxic 48-hour treatment with 40 μM 3-BP (3-BP survivors; right panel). Arrows point to a few apparently MCT-1-negative cells among the otherwise MCT-1-positive parental population. Note preferential staining of the cell membrane in the positive cells, consistent with the known transmembrane location of MCT-1; no such staining could be detected in the 3-BP survivors. (B) Western blot analysis of MCT-1 expression levels two weeks after 48-hour treatment of cells with increasing concentrations of 3-BP. […] GAPDH was used as a loading control. (C) Chemosensitivity of 3-BP survivors were compared to parental cells in MTT assays. Both populations were treated with increasing concentrations of 3-BP or NEO218. Survival of untreated cells was set at 100% (n≥3±SE).
Upon closer inspection of individual cells by immunohistochemistry, we detected a small number of apparently MCT-1-negative cells among the otherwise mostly MCT-1-positive population (FIG. 20A). This aspect was investigated further by treating HCT116 cells with 40 μM, representing a concentration that reduces apparent viability by 75% in MTT assays (FIG. 17A) and blocks colony formation by 99% in CFAs. […] These cells, which we called 3-BP survivors, were further analyzed. Intriguingly, no MCT-1 expression could be detected in these cells, neither by immunohistochemistry (FIG. 20A) nor by Western blot (FIG. 20B). […] Intriguingly, NEO218 had no such effect.

MDA-MB-231 cells = test: Colony formation assay in MDA-MB-231 cells; type: cell-based; details: Homo sapiens; MDA-MB-231, 48 hours drug then 10-14 days; read-out: effective concentration (half-maximal), CFA
Procedure: (A) MTT assay was performed after 24 hours. […] (B) LDH assay was performed after […]. LDH release by untreated cells was set to 1. Relative fold increase is shown (n=3).
(A) MTT assay was performed after 24 hours. Viability of untreated cells was set at 100% (data points are averages of 2 experiments). (B) LDH assay was performed after 24 hours. LDH release by untreated cells was set to 1. Relative fold increase is shown (averages from 2 experiments). (C) Representative photos show typical colony formation after initial 48 hours of drug treatment. In all cases of combination treatment with 3-BP mixed with […] (3-BP+POH), the indicated concentrations refer to each individual drugs, i.e., 100 μM 3-BP+POH means that 100 μM 3-BP was combined with 100 μM POH.
Depending on the cell line (and plating efficiency), 250-800 cells were seeded into each well of a 6-well plate and treated as described in detail previously. After 12-16 days, colonies (defined as groups of >50 cells) were visualized by staining for 4 hours with 1% methylene blue (in methanol), and then were-counted. Experiments were repeated at least once, but usually more often under different conditions.

SMILES	IC50 ([1]; Homo sapiens, all six cell lines)	cancer cell killing effects compared with 3-BP ([1]; MTT)	cytotoxic potency compared with the other treatments (tumor cell lines)	depletion of cellular ATP pools [2]	organ toxicity or other side effects [3]	tolerability in mice [3]	tumor growth compared with vehicle group [3]	tumor volume at the end of the experiment ([3]; day 13, all animals)	sensitivity of 3-BP survivors ([4]; 3-BP survivors of HCT116, MTT)	surviving cells after treatment ([4]; parental HCT116, 40 μM)	IC50 (MDA-MB-231 cells)	IC50 ([4]; Homo sapiens, HCT-116, read-out: IC50 (MTT))
C=C(C)[C@@H]1CC=C(COC(=O)C(=O)CBr)CC1 [NEO218, 3-bromo-2-oxo-propionic acid 4-isopropenyl-cyclohex-1-enylmethyl ester]	15 to 40 µM	more potent cancer cell killing effects than 3-BP in all cell lines	much more potent than any other treatment	nearly identical outcomes; also recorded: potently depletes the levels of cellular ATP pools	organ toxicity or other side effects were not detected	tolerated this compound quite well	slower tumor growth	below 200 cubic millimeters	retained their high sensitivity toward NEO218	did not leave any surviving cells	–	–
O=C(O)C(=O)CBr [3-BP, 3-bromopyruvate]	–	–	–	nearly identical outcomes; also recorded: potently depletes the levels of cellular ATP pools	–	–	–	–	–	–	~130 µM	> 100 µM
